In ChEMBL document CHEMBL1201862, “PubChem BioAssay data set” (2004):
Calls of active or inactive are those of the source.

Experiments:
[1] = molecular target: Alkaline phosphatase, placental type (Homo sapiens, UniProt P05187); assay: PLAP enzyme inhibitors, confirmation, biochemical, luminescence (AID 1512); format: functional
[2] = system: Streptococcus sp. 'group A'; assay: growth inhibition of control SK(-) GAS strain, dose response, counter-screen for streptokinase expression inhibitor project, luminescence, kanamycin, BacTiterGlo, confirmation (AID 1900); format: functional, organism-based
Streptococcus = assay: Group A Streptococcus viability loss, dose response, counter-screen for streptokinase expression inhibitor project, luminescence, BacTiterGlo (AID 1915); format: functional, organism-based;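 further: potency for reduction of bacterial viability or growth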
Streptokinase A = molecular target: T1, Streptokinase A (Streptococcus pyogenes serotype M1, UniProt P10520); assay: S. pyogenes streptokinase expression inhibitors, potency, dose response, plasminogen activation absorbance, OD405 (AID 1914); format: functional, Streptococcus pyogenes M1 GAS;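 further: secreted streptokinase activity via plasminogen activation per viability signal from cell pellet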
T1 sequence (P10520 whole entry): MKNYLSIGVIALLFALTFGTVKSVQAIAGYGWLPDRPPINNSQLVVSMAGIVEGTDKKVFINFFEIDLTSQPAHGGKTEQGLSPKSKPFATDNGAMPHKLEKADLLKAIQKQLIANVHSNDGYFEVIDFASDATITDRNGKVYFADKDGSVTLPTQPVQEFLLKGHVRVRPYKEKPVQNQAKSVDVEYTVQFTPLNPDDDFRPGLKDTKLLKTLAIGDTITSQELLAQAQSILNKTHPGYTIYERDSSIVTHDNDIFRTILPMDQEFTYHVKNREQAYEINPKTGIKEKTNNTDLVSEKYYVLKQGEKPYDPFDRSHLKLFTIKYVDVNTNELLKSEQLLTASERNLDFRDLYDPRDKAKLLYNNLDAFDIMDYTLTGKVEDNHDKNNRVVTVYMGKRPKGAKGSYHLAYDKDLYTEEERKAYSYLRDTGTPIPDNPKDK

[3] = molecular target: Voltage-dependent T-type calcium channel subunit alpha-1H (Homo sapiens, UniProt O95180); format: functional;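 further: channel activity triggered by adding a high calcium stimulation buffer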
H9c2 = assay: cells; format: functional, cell-based; conditions: Rattus norvegicus, H9c2, Myocardium;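 further: confirmatory concentration-response retest of ultra-high-throughput screening hits for modulation of myocardial damage; cell death induced by hydrogen peroxide oxidative stress; compound pretreatment for 60 min then peroxide exposure for 2 h; potency is for protecting the cells against peroxide damage rather than for killing them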
cells [4] = format: functional, cell-based
cells [5] = format: functional, cell-based; remark: listed apart in the source
[6] = molecular target: T2, Trace amine-associated receptor 1 (Homo sapiens, UniProt Q96RJ0); assay: Counterscreen for agonists of the human trace amine associated receptor 1 (hTAAR1): Fluorescence-based cell-based high throughput dose response assay to identify hTAAR1 agonist that also desensitize TAAR1 receptor response.; format: functional
T2 sequence (Q96RJ0 whole entry): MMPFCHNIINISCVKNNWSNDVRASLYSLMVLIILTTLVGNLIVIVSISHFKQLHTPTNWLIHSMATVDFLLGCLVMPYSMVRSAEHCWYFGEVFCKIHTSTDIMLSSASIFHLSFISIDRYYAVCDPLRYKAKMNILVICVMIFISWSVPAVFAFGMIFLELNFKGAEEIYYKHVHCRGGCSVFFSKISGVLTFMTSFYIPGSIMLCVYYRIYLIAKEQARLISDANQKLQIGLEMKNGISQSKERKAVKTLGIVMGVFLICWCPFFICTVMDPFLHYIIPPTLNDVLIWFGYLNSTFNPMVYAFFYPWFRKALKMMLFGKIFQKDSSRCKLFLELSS

[7] = molecular target: T2, Trace amine-associated receptor 1; assay: Fluorescence-based cell-based high throughput dose response assay to identify agonists of the human trace amine associated receptor 1 (TAAR1).; format: functional
[8] = molecular target: T3, Alkaline phosphatase, tissue-nonspecific isozyme (Homo sapiens, UniProt P05186); assay: human TNAP enzyme inhibitors, SAR follow-up, biochemical, luminescent, dose response (AID 1056)
T3 sequence (P05186 whole entry): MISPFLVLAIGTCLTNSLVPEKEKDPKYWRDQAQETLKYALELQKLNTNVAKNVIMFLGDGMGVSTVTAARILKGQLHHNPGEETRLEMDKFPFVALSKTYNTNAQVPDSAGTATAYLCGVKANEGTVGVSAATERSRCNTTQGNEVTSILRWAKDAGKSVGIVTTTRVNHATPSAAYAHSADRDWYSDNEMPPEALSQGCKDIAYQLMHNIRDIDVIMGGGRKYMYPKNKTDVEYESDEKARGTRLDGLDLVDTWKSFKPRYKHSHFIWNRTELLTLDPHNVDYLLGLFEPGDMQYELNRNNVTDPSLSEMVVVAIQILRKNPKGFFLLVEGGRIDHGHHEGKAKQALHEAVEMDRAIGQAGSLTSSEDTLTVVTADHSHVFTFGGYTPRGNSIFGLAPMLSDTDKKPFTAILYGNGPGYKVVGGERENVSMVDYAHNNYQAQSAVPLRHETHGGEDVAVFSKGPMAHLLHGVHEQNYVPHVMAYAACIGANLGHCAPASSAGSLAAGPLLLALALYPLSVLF

[9] = molecular target: Protein-tyrosine kinase 2-beta (Homo sapiens, UniProt Q14289);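 further: potency of inhibitors of PYK2 kinase phosphorylation of poly-GT substrate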
HEK293 [10] = assay: NOD2 signaling inhibitors in MDP-stimulated cells, cell-based, uHTS, luminescence (AID 2001); format: functional; conditions: Homo sapiens
[11] = molecular target: Nucleotide-binding oligomerization domain-containing protein 2 (Homo sapiens, UniProt Q9HC29); assay: NOD2 signaling inhibitors, cell-based, luminescence, uHTS, HEK293 (AID 1566); format: functional
HEK293 [12] = assay: NOD1 signaling inhibitors, primary screen, cell-based, luminescence, uHTS (AID 1578); format: functional; conditions: Homo sapiens
HEK293 [13] = assay: cells; format: functional, cell-based; conditions: Homo sapiens
HEK293 [14] = assay: cells; format: functional, cell-based; conditions: Homo sapiens; remark: listed apart in the source
HEK293 [15] = assay: cells; format: functional, cell-based; conditions: Homo sapiens; remark: listed apart in the source
INS1 = assay: beta cell apoptosis inhibitors, cytokine rescue, dose response, luminescence, retest (AID 449756); format: functional, cell-based; conditions: Rattus norvegicus;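 further: cell death triggered by IL-1 beta plus TNF-alpha plus IFN-gamma mixture; protective hits raise ATP signal compared with cytokine alone wells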
cells [16] = format: functional, cell-based; remark: listed apart in the source
cells [17] = format: functional, cell-based; remark: listed apart in the source
[18] = HeLa 4N DNA content increase, dose response, cell-based, IC50 (AID 1117351); format: functional
[19] = HeLa 2N DNA content increase, dose response, cell-based, IC50 (AID 1117349); format: functional

Chain of Alkaline phosphatase, placental type (P05187 whole entry): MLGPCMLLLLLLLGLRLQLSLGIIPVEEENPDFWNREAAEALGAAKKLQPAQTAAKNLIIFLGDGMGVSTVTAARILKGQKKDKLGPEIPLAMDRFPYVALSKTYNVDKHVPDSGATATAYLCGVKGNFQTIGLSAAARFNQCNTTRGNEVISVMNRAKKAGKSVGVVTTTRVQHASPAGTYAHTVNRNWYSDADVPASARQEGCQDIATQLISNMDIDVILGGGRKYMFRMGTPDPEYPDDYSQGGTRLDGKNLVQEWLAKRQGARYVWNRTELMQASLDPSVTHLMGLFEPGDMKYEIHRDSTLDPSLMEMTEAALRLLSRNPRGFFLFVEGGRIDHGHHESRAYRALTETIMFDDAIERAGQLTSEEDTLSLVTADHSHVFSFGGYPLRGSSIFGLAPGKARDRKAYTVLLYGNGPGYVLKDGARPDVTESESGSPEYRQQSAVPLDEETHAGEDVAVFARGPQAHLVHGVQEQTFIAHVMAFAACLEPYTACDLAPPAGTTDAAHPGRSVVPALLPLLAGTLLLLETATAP
Chain of Voltage-dependent T-type calcium channel subunit alpha-1H (O95180 whole entry): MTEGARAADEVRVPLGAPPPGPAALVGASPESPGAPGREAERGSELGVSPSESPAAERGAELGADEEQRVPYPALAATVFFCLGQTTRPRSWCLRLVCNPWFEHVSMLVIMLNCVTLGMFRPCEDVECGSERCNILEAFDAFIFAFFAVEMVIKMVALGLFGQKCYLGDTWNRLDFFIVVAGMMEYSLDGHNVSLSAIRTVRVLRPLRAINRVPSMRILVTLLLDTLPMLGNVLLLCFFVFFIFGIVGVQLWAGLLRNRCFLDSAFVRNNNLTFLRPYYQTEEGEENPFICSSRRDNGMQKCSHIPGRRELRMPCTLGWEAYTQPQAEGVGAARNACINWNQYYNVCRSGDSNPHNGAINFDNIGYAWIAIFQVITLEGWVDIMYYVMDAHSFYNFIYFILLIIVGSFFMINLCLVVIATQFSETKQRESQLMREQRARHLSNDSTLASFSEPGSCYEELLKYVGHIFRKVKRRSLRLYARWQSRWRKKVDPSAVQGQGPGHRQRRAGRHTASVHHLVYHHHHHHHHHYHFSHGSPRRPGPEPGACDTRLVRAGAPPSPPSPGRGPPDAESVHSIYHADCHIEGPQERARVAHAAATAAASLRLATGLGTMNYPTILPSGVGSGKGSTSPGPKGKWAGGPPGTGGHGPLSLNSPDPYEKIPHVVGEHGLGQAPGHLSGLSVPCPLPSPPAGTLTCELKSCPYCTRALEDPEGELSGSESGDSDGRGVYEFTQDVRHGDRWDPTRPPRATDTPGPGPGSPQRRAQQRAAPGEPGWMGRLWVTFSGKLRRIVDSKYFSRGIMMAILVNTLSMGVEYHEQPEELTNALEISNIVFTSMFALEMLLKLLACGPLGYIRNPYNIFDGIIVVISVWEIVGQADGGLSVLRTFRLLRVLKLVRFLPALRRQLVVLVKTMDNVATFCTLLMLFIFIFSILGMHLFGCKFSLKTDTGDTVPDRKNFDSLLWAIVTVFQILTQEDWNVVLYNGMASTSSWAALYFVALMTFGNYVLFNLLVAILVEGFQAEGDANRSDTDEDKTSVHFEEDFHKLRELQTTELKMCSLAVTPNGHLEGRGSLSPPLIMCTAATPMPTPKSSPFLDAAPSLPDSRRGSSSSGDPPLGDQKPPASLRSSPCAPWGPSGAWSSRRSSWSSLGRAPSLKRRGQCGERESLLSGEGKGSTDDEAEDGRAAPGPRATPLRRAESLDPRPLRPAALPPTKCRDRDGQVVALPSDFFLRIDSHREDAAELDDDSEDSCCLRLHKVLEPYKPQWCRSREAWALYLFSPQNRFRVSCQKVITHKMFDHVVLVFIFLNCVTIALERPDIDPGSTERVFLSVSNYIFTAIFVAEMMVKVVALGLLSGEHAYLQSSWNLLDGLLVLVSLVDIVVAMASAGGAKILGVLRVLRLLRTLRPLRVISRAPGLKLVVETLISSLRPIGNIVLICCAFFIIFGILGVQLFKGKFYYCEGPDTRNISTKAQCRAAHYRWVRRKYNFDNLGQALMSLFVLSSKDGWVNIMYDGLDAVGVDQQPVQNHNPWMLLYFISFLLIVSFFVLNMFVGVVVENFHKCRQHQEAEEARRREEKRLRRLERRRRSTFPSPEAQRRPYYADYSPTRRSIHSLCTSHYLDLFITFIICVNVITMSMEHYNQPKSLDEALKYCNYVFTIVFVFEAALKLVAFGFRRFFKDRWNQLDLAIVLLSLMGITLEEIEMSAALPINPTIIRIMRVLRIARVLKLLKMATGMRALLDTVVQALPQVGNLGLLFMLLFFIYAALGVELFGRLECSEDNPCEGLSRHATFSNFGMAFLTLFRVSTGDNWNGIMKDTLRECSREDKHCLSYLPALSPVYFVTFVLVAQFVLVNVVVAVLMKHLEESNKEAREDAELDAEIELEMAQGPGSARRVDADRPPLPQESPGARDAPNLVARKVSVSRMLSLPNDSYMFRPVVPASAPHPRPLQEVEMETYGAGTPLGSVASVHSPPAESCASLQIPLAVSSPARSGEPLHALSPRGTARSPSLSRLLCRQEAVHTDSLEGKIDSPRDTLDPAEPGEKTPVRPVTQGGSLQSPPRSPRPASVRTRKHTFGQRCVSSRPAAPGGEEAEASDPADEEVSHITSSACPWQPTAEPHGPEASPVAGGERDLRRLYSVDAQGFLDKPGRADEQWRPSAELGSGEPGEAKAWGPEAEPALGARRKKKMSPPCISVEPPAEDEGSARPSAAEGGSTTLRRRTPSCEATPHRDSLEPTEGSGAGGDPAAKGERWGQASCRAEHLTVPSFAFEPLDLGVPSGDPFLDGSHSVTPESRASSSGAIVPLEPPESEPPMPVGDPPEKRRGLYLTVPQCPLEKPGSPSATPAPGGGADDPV
Chain of Protein-tyrosine kinase 2-beta (Q14289 whole entry): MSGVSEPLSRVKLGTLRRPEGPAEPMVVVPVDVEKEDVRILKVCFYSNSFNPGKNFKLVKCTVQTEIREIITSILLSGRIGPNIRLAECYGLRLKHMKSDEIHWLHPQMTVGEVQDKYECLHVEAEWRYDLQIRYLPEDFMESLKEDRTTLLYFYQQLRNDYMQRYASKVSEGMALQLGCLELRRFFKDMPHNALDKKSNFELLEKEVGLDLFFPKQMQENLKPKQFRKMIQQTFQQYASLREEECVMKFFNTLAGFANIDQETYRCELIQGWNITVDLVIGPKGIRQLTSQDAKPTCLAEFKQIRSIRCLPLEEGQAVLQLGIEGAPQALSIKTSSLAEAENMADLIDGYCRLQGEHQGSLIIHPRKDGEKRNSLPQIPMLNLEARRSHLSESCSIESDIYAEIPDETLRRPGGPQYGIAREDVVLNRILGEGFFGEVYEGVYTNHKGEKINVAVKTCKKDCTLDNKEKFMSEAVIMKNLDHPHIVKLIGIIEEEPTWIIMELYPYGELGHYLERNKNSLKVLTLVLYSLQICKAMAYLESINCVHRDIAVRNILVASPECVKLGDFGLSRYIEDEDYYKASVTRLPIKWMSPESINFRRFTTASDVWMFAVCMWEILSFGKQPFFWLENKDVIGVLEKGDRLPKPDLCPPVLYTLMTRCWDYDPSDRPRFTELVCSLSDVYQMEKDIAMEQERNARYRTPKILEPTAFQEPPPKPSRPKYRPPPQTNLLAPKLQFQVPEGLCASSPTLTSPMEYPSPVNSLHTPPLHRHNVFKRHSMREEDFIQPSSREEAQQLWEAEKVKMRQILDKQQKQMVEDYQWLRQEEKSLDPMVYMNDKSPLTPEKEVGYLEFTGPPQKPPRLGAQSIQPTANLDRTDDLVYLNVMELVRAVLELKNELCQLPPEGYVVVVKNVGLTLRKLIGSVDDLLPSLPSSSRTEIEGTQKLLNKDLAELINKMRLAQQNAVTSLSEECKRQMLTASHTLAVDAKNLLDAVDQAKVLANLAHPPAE
Chain of Nucleotide-binding oligomerization domain-containing protein 2 (Q9HC29 whole entry, the tested form may be a part): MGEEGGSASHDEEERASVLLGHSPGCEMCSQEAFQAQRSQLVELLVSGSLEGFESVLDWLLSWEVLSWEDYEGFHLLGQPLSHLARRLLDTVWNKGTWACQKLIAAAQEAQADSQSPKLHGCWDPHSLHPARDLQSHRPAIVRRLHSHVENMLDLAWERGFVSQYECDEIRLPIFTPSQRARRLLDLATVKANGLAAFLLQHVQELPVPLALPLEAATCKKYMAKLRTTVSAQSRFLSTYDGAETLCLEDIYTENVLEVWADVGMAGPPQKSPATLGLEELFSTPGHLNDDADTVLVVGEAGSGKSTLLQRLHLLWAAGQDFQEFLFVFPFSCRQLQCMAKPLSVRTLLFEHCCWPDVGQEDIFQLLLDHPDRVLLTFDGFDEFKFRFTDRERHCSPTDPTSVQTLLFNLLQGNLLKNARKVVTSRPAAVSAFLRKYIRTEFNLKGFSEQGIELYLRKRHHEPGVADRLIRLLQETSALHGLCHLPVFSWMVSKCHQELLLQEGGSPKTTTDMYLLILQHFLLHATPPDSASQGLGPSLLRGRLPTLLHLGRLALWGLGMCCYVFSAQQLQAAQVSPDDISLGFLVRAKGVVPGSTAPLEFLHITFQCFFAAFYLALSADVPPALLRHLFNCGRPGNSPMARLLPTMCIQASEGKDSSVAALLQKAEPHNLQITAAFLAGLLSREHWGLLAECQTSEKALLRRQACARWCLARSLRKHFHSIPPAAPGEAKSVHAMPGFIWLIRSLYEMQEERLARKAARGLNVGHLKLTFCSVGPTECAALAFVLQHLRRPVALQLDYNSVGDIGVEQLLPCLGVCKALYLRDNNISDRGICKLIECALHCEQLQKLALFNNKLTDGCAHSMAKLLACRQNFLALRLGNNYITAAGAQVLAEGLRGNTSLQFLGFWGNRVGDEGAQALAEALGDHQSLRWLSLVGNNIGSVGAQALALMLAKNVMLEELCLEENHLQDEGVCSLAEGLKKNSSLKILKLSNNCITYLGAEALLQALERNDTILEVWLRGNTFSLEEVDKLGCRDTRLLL

CCc1ccc2nc(Nc3nc(COC)cc(=O)[nH]3)nc(C)c2c1
IC50 [1]: > 100 µM (inactive)

O=C(CCCSc1ccccc1)Nc1nc(-c2ccccn2)cs1
EC50 [2]: 5.14 µM (active) | EC50 (Streptococcus): 45.8 µM (active) | EC50 (Streptokinase A): > 150 µM (not active) | EC50 [3]: 4.7 µM (active) | IC50 (H9c2): > 79 µM (inactive)

O=C(O)c1ccccc1C(=O)NCC(O)c1ccccc1 (configuration not stated)
IC50 (cells [4]): > 29.9 µM (inactive) | EC50 (cells [5]): > 29.9 µM (inactive) | IC50 [6]: > 29.9 µM (inactive) | EC50 [7]: 5.05 µM (active)

CC(C)Oc1cc(NC(=O)C[S+]([O-])CC(=O)Nc2cccc(C(F)(F)F)c2)c(Cl)cc1Cl (configuration not stated)
EC50 [3]: 3.23 µM (active)

CCCCN1C(=O)/C(=N\Nc2ccccc2OC)c2ccccc21
IC50 [8]: 28.7 µM (active) | IC50 [1]: 87.9 µM (active)

CN1C(=O)c2cccc3c(S(=O)(=O)NCc4ccco4)ccc1c23
IC50 [9]: > 69.5 µM (not active)

COc1ccc(-n2c(C)c([N+](=O)[O-])c3ccc(O)c(CN4CCCCC4)c32)cc1
IC50 (HEK293 [10]): 2.39 µM (active) | EC50 [11]: > 20 µM (inactive) | EC50 (HEK293 [12]): 2.77 µM (active) | IC50 (HEK293 [13]): > 20 µM (inactive) | IC50 (HEK293 [14]): 2.1 µM (active) | IC50 (HEK293 [15]): > 20 µM (inactive)

CCCCc1c(-c2ccccc2OC)ncn1CCc1cccc(F)c1
IC50 (cells [4]): 15.3 µM (inactive) | EC50 (cells [5]): > 29.9 µM (inactive) | IC50 [6]: 4.33 µM (active) | EC50 [7]: 2.73 µM (active)

CCCCn1c(/C=N/Nc2nc3ccccc3[nH]2)nc2ccccc21
EC50 [2]: 1.66 µM (active) | AC50 (INS1): 3.54 µM (active) | EC50 (Streptococcus): 3.74 µM (active) | EC50 (cells [16]): 43.7 µM (active) | EC50 (cells [17]): > 350 µM (not active)

Cc1cc(C(=O)NCCc2ccc(O)c(O)c2)c(C)o1
IC50 [8]: > 100 µM (inactive) | IC50 [1]: > 100 µM (inactive)

O=C(Nc1ccc(F)cc1)Nc1ccc(Oc2ncnc3cc(Cl)ccc23)nc1
IC50 (cells [4]): > 29.9 µM (inactive) | EC50 (cells [5]): > 29.9 µM (inactive) | IC50 [6]: 0.373 µM (active) | EC50 [7]: > 29.9 µM (inactive)

CC[C@@H]([C@H](C)O)n1ncn(-c2ccc(N3CCN(c4ccc(OC[C@@H]5CO[C@@](Cn6cncn6)(c6ccc(F)cc6F)C5)cc4)CC3)cc2)c1=O
IC50 [18]: > 10 µM (inactive) | IC50 [19]: > 10 µM (inactive)
